What was measured:
Assay type in all cases: functional
[1] = test system: Mus musculus; experiment: Antinociceptive activity in Mus musculus Swiss (mouse) assessed as protection against acetic acid-induced writhing at 50 mg/kg, po administered 1 hr prior challenge measured for 20 min following acetic acid treatment relative to control
[2] = test system: Rattus norvegicus; experiment: Antipyretic activity in yeast-fevered Rattus norvegicus Sprague-Dawley (rat) assessed as reduction in rectal temperature at 50 mg/kg, po administered 17 hr post challenge measured after 120 min; set-up: scale not given: the % may be the effect or the level left
[3] = test system: Rattus norvegicus; experiment: Antipyretic activity in yeast-fevered Rattus norvegicus Sprague-Dawley (rat) assessed as reduction in rectal temperature at 50 mg/kg, po administered 17 hr post challenge measured after 90 min; set-up: scale not given: the % may be the effect or the level left
[4] = test system: Rattus norvegicus; experiment: Antipyretic activity in yeast-fevered Rattus norvegicus Sprague-Dawley (rat) assessed as reduction in rectal temperature at 50 mg/kg, po administered 17 hr post challenge measured after 60 min; set-up: scale not given: the % may be the effect or the level left
[5] = test system: Rattus norvegicus; experiment: Antipyretic activity in yeast-fevered Rattus norvegicus Sprague-Dawley (rat) assessed as reduction in rectal temperature at 50 mg/kg, po administered 17 hr post challenge measured after 30 min; set-up: scale not given: the % may be the effect or the level left
[6] = test system: Rattus norvegicus; experiment: Anti-inflammatory in Rattus norvegicus Sprague-Dawley (rat) subcutaneously implanted with cotton pellets assessed as inhibition of granuloma growth at 50 mg/kg, po measured after 7 days; details: 168 h
[7] = test system: Rattus norvegicus; experiment: Anti-inflammatory activity in Rattus norvegicus Sprague-Dawley (rat) assessed as inhibition of carrageenan-induced paw edema at 100 mg/kg, po for 7 days challenged with carrageenan 1 hr post last dose on day 7 measured after 2 hr after challenge
[8] = test system: Rattus norvegicus; experiment: Anti-inflammatory activity in Rattus norvegicus Sprague-Dawley (rat) assessed as inhibition of carrageenan-induced paw edema at 50 mg/kg, po for 7 days challenged with carrageenan 1 hr post last dose on day 7 measured after 2 hr after challenge
[9] = test system: Rattus norvegicus; experiment: Antipyretic activity in yeast-fevered Rattus norvegicus Sprague-Dawley (rat) assessed as reduction in rectal temperature at 100 mg/kg, po administered 17 hr post challenge measured after 120 min; set-up: scale not given: the % may be the effect or the level left
[10] = test system: Rattus norvegicus; experiment: Antipyretic activity in yeast-fevered Rattus norvegicus Sprague-Dawley (rat) assessed as reduction in rectal temperature at 100 mg/kg, po administered 17 hr post challenge measured after 90 min; set-up: scale not given: the % may be the effect or the level left
[11] = test system: Rattus norvegicus; experiment: Antipyretic activity in yeast-fevered Rattus norvegicus Sprague-Dawley (rat) assessed as reduction in rectal temperature at 100 mg/kg, po administered 17 hr post challenge measured after 60 min; set-up: scale not given: the % may be the effect or the level left
[12] = test system: Rattus norvegicus; experiment: Antipyretic activity in yeast-fevered Rattus norvegicus Sprague-Dawley (rat) assessed as reduction in rectal temperature at 100 mg/kg, po administered 17 hr post challenge measured after 30 min; set-up: scale not given: the % may be the effect or the level left
[13] = test system: Mus musculus; experiment: Antinociceptive activity in Mus musculus Swiss (mouse) assessed as protection against acetic acid-induced writhing at 25 mg/kg, po administered 1 hr prior challenge measured for 20 min following acetic acid treatment relative to control
[14] = test system: Rattus norvegicus; experiment: Anti-inflammatory in Rattus norvegicus Sprague-Dawley (rat) subcutaneously implanted with cotton pellets assessed as inhibition of granuloma growth at 25 mg/kg, po measured after 7 days; details: 168 h
[15] = test system: Rattus norvegicus; experiment: Anti-inflammatory activity in Rattus norvegicus Sprague-Dawley (rat) assessed as inhibition of carrageenan-induced paw edema at 25 mg/kg, po for 7 days challenged with carrageenan 1 hr post last dose on day 7 measured after 2 hr after challenge

| Compound | Activity [1] | Activity [2] | Activity [3] | Activity [4] | Activity [5] | inhibition in vivo at 50 mg/kg [6] | inhibition in vivo at 100 mg/kg [7] | inhibition in vivo at 50 mg/kg [8] | Activity [9] | Activity [10] | Activity [11] | Activity [12] | Activity [13] | inhibition in vivo at 25 mg/kg [14] | inhibition in vivo at 25 mg/kg [15] |
| --- | --- | --- | --- | --- | --- | --- | --- | --- | --- | --- | --- | --- | --- | --- | --- |
| O=C(O)CCC(=O)/C=C/c1ccc2c(c1)OCO2 | 69.65% | 2.49% | 3.41% | 4.08% | 0.99% | 53.3% | 68.8% | 57.5% | – | – | – | – | – | – | – |
| NC(=O)c1cc(C(=O)CCC(=O)O)ccc1O | 59.24% | 2.44% | 2.71% | 2.11% | 0.86% | 34.4% | 27.5% | 13.6% | – | – | – | – | – | – | – |
| CC(=O)c1cc(C(=O)CCC(=O)O)ccc1O | 61.47% | 2.52% | 2.63% | 1.8% | 1.58% | 5.2% | 22.4% | 4.11% | – | – | – | – | – | – | – |
| CC(=O)Nc1ccc(O)cc1 [ACETAMINOPHEN] | – | – | – | – | – | – | – | – | 6.06% | 5.47% | 5.14% | 4.18% | – | – | – |
| O=C([O-])Cc1ccccc1Nc1c(Cl)cccc1Cl.[Na+] [DICLOFENAC SODIUM] | – | – | – | – | – | – | – | – | – | – | – | – | 72.58% | 45.4% | 47.6% |

From ChEMBL document CHEMBL3045855, “ANTIPYRETIC, ANTINOCICEPTIVE AND ANTI-INFLAMMATORY ACTIVITIES OF CERTAIN -OXOBUTANOIC ACID DERIVATIVES” (2005)
